This is an account of results in patent US20100087539A1, “N'--3-AMINO-3-PHENYLPROPEONIC ACID AND THE PHARMACEUTICALLY ACCEPTABLE DERIVATIVES THEREOF, A METHOD FOR THE PRODUCTION AND THE USE THEREOF IN THE FORM OF A MEDICINAL AGENT” (priority 2006, published 2010).

One series concerns B-cellular immunity. As to the kind of experiment: B-cellular immunity upon immunization with BSA, specific antibody titer by enzyme-linked immunoassay. The settings on record: for Antibody titer (inverse value): mice, s.c. BSA with compound, sera at day 10 post second immunization; for Immunogenicity coefficient: relative to BSA without the preparation. Format: in vivo, mice. On the procedure: 400 μg of BSA was injected subcutaneously to the animals in 0.5 ml of 0.9% NaCl. Three groups of control animals were involved. […] Additionally, glycyrrhizinic acid (GA) was used as a known immunomodulator. Preimmune mice served as a control. At day 21 the second immunization was performed similarly (the injection solution contained 100 μg of BSA and 200 μg of the test compound). At day 10 post the second immunization blood sera were collected. The titer of antibodies was determined by an enzyme-linked immunoassay technique according to the procedure as described [Enzyme-linked immunoassay technique//Edited by T. T. Igo, G. Lenkhoffaju—Moscow: Mir, 1998].

A further series has as its system T-cellular immunity. Description: T-cellular immunity upon immunization with sheep red blood cells, rosette formation method. The series is classed as in vivo, mice. To be noted: for Number of rosettes per 10^3 cells: mice, s.c. SRBC with compound (10 mg/kg), splenocytes at day 6; for Stimulation index: rosettes with compound / rosettes with SRBC alone. How it is done:
The effect on stimulating T-cellular immunity upon injection with a strong antigen of sheep red blood cells (SRBC) was studied by the rosette formation method.
Outbred male mice weighing 20-22 g were used in the experiment. […] SRBC without dipeptide 1 (negative control) or SRBC with IFA or with GA (positive control) were injected to the control animals; another control group—preimmune animals. At day 6 post immunization a suspension of splenocytes was prepared at a concentration of […] per 1 milliliter. 0.9 ml of the splenocyte suspension and 0.1 ml of a suspension of sheep red blood cells (10^9 cells per milliliter) were placed in glass vials, mixed and incubated for 16 h at 4° C. After incubation, 4 ml of a cold medium was added into the glass vial, carefully mixed; 100 μl of cell suspension was withdrawn using a pipette with a wide-bore mouth, stained with a 0.4% trypan blue solution and the number of rosettes was counted in a Gorjaev's chamber [Friemel H Immunological methods/Translated from German, edited by M. A. Frolova.—Moscow: Mir, 1979, 518 p.]. The results are presented as the number of rosettes formed per […]. The stimulation index was calculated as a ratio of the number of rosettes in the experiment (immunization with SRBC in a mixture with the compound studied) and the number of rosettes in the control (immunization with SRBC alone).

Series [1] concerns HIV-1/EVK. Description: microbe, parasite or virus in culture. To be noted: added simultaneously with the virus. The series is classed as cell-based. On the procedure:
The anti-HIV activity of dipeptide 1 was studied on a highly HIV-sensitive cell culture MT-4. The MT-4 cells were added into the wells of a 96-well culture plate and infected with a virus stock (strain HIV-1/EVK) at a multiplicity of infection of 0.2-0.5 tissue culture infective dose per cell, then the test substance was added into a cell suspension simultaneously with the virus to give the final concentration of 0.00001 to 1 μg/ml (each concentration in triplicate) and incubated at 37° C. for 1 h (virus adsorption). On completion of the incubation, the suspension of the infected cells was diluted with a complete growth medium with all supplements as described above containing the preparations in the same concentrations to give the inoculation concentration of 0.5×10^6 cells/ml.
The experimental (with the preparation added) and control (without the preparation added) infected cells and control uninfected cells (without the preparation added) were cultivated at 37° C. and 5% CO2 for 4 days. On completion of the incubation the proportion of viable cells was counted in a Gorjaev's chamber after staining with a 0.4% trypan blue solution and the accumulation level of virus-specific protein p24 was controlled by the immunoenzyme method as described [Fedyuk N. V., Konovalov E. E., Loktev V. B., Uryvaev L. V., Kulyandin S. A., Pokrovsky A. G.//Problems of Virology, 1992, v. 3, p. 135].
In addition, the inhibiting dose ID90 that corresponds to the concentration of dipeptide 1 suppressing the virus production by 90% was determined. […] PD50, the concentration of dipeptide 1 protecting by 50% the infected cells from the virus-induced cytopathic effect was also calculated as described earlier by us [Svinarchuk P. P., Konevetz D. A., Pliasunova O. A., Pokrovsky A. G., Vlassov V. V.//Biochimie, 1993, Bd. 75, S. 243]. […] Comparing the concentrations inducing 50 and 90% inhibition of virus accumulation provides an important characteristic of the anti-viral activity.

In series [2] the test system is HIV-1/EVK. As to the kind of experiment: microbe, parasite or virus in culture. The series is classed as cell-based. To be noted: added after virus adsorption; for EC50: read-out: Protection of cells from death PD50. On the procedure:
The Anti-HIV activity of dipeptide 1 was studied on a highly HIV-sensitive cell culture MT-4. […] Then, aliquots of serial dilutions of dipeptide 1 in DMSO were added into the wells to the final concentrations of 0.1 ng/ml to 1 μg/ml (each concentration in triplicate). The experimental (with the preparation added) and control (without the preparation added) infected cells were cultivated at 37° C. and 5% CO2 for 4 days. […] 3, p. […] The inhibiting dose for dipeptide 1 is 0.4 μM. The dose of the compound protecting the cells from death (PD50) was also determined. […] Additionally, the selectivity index (IS) calculated as a ratio of the toxic dose of dipeptide 1 to the protection dose thereof PD50 (CD50/PD50) was determined.

Series [3] concerns MT-4 cells. As to the kind of experiment: Cytotoxicity on MT-4 cells (trypan blue viable cell count, 4 days). The settings on record: concentration reducing by 50% the proportion of viable MT-4 cells.
The next series relates to white outbred mice. As to the kind of experiment: Acute toxicity, intraperitoneal injection. Format: in vivo. On the procedure:
0.5 ml of the compound was injected intraperitoneally to mice weighing 20 g, each group comprising 4 animals. 0.5 ml of sterile sunflower oil was injected to the control mice.

The test system of series [4] is MT-4 cells. To be noted: human, 4 days.
Setting [5] is: Human immunodeficiency virus 1, MT4, 96 h, MT-4, HIV-1/EVK, 4 days, read-out: Inhibition of P24 accumulation ID50.

Where two headings read alike, the source gives them in different places.

On to `CC1(C)[C@@H](O[C@H]2O[C@H](C(=O)O)[C@@H](O)[C@H](O)[C@H]2O[C@@H]2O[C@H](C(=O)O)[C@@H](O)[C@H](O)[C@H]2O)CC[C@]2(C)[C@H]3C(=O)C=C4[C@@H]5C[C@@](C)(C(=O)O)CC[C@]5(C)CC[C@@]4(C)[C@]3(C)CC[C@@H]12` [GA, glycyrrhizinic acid], for which, in the series on B-cellular immunity, the “Antibody titer (inverse value)” value turned out to be 5120 and the Immunogenicity coefficient is listed as 25.6. Besides, in the series on T-cellular immunity, the “Number of rosettes per 10^3 cells” value was 24 ± 1.1 and the Stimulation index is given as 2.0.

Consider “N′-{N-[3-oxo-lupan-28-oyl]-9-aminononanoyl}-3-amino-3-phenylpropionic acid [Compound 1]”, for which the “Inhibition of P24 accumulation ID90” value was 100 nM in the series on HIV-1/EVK [1] (MT-4, HIV-1/EVK, 4 days) and “Not achieved” in the series with HIV-1/EVK [2] (MT-4, HIV-1/EVK, 4 days). Besides, the EC50 in the series with HIV-1/EVK [1] (concentration protecting by 50% the infected cells from virus-induced cytopathic effect, read-out: PD50) came to 15 nM; in the series on HIV-1/EVK [2] (MT-4, HIV-1/EVK), 250 nM. This compound also registered a CD50 in the series with MT-4 cells [3] of 6.8 µM. In the series with white outbred mice (from LD50, mice), the hazard class result is “class 3 of moderately hazardous substances”. Further, the LD50 entry with white outbred mice (mice of both sexes) is given as “more than 2500 mg/kg”. The “Number of rosettes per 10^3 cells” value in the series with T-cellular immunity stood at 24 ± 1.3.

For `C=C(C)[C@@H]1CC[C@]2(C(=O)NCCCCCCCCC(=O)NC(CC(=O)O)c3ccccc3)CC[C@]3(C)C(CCC4[C@@]5(C)CCC(=O)C(C)(C)C5CC[C@]43C)C12` (stereo partly drawn) [Compound 9], the CD50 in the series with MT-4 cells [4] turned out to be 5.6 µM. In addition, the “IS (selectivity index)” value with HIV-1/EVK [1] (CD50/ID50) worked out at 2135; in the series with HIV-1/EVK [2] (CD50/ID50), 14.0. The figures for the IC50 with HIV-1/EVK [1] (setting [5]) and with HIV-1/EVK [2] (setting [5]) were 2.6 nM and 400 nM, respectively. Moreover, the “Inhibition of P24 accumulation ID90” value with HIV-1/EVK [1] (MT-4, HIV-1/EVK, 4 days) was 198 nM; in the series on HIV-1/EVK [2] (MT-4, HIV-1/EVK, 4 days), “Not achieved”. In the series on HIV-1/EVK [2] (Human immunodeficiency virus 1, MT4, MT-4, HIV-1/EVK), the EC50 turned out to be 500 nM. Besides, the “Antibody titer (inverse value)” value in the series with B-cellular immunity is reported as 51200. Besides, the Immunogenicity coefficient in the series on B-cellular immunity is 256. Further, the “Number of rosettes per 10^3 cells” value with T-cellular immunity was 21 ± 1.4. Also, in the series with T-cellular immunity, the Stimulation index stood at 1.8.
